Drawing on patent US11505536B2, “Dihydroorotate dehydrogenase inhibitors” (Janssen Biotech, Inc., priority 2019, dated 2022), this text covers IC50 for 23 compounds.

For assay [1], the system named is MOLM-13 cells (human acute myeloid leukemia cells). Description: MOLM-13 Cellular Assay. In kind it is cell-based. To be noted: 72 hours exposure, cell viability by CellTiter-Glo. The procedure, abridged: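 MOLM-13 AML cells, seeded at 5,000/well in RPMI 1640 with 10% FBS, were treated with compounds right after seeding for 72 h at 37 °C, 5% CO2. Viability read by CellTiter-Glo luminescence.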

A further assay deals with human DHODH (Homo sapiens (Human), UniProt Q02127). Kind of assay: DHODH Enzymatic Assay. In kind it is biochemical. As to conditions: purified human DHODH, DCIP absorbance, end-point mode; read-out: hDHODH IC50. The procedure, abridged:
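Purified human DHODH in […] HEPES pH 7.5, 150 mM NaCl, 0.5 mM EDTA, 0.1% Triton X-100; reaction started with substrate mix of 20 mM DHO, 5 mM CoQ6, 1 mM DCIP. End-point read as DCIP reduction (absorbance ~600 nm) after brequinar quench.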

Chain of human DHODH (Q02127 whole entry): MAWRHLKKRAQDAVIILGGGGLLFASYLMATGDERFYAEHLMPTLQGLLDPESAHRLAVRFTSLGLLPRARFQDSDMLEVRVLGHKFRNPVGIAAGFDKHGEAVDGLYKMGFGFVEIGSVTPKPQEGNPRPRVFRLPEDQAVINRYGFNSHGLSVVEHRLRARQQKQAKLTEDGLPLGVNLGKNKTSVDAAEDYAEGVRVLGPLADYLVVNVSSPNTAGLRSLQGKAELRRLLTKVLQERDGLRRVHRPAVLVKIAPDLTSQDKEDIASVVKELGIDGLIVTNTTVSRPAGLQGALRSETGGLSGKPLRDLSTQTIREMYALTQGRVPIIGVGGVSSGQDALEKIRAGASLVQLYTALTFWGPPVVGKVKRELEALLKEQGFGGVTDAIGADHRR

As for `C=C(c1cn(-c2ccccc2C)c(=O)c2cc(F)c(-n3nc(CO)n(CC)c3=O)cc12)C(F)(F)F` [Example 81, 6-(4-Ethyl-3-(hydroxymethyl)-5-oxo-4,5-dihydro-1H-1,2,4-triazol-1-yl)-7-fluoro-2-(o-tolyl)-4-(3,3,3-trifluoroprop-1-en-2-yl)isoquinolin-1(2H)-one], the IC50 in assay [1] (Homo sapiens, MOLM-13, 72 h) was 0.3 nM; on human DHODH, 0.226 nM.

Turning to `C=C(C)c1cn(-c2ccccc2OC)c(=O)c2cc(F)c(-n3nc(CO)n(CC)c3=O)cc12` [Example 83, 6-(4-Ethyl-3-(hydroxymethyl)-5-oxo-4,5-dihydro-1H-1,2,4-triazol-1-yl)-7-fluoro-2-(2-methoxyphenyl)-4-(prop-1-en-2-yl)isoquinolin-1(2H)-one], the IC50 in assay [1] was 0.2 nM; in assay [1] (Homo sapiens, MOLM-13, 72 h), no more than 0.2 nM; on human DHODH, 0.444 nM.

Regarding `C=C(C)c1cn(-c2cc(C)cnc2Cl)c(=O)c2cc(F)c(-n3nc(CO)n(CC)c3=O)cc12` [Example 84, 2-(2-Chloro-5-methylpyridin-3-yl)-6-(4-ethyl-3-(hydroxymethyl)-5-oxo-4,5-dihydro-1H-1,2,4-triazol-1-yl)-7-fluoro-4-(prop-1-en-2-yl)isoquinolin-1(2H)-one], the IC50 in assay [1] (Homo sapiens, MOLM-13, 72 h) came to 70 nM; on human DHODH it was 6.58 nM.

In the case of `C=C(C)c1cn(-c2cc(OC)ncc2F)c(=O)c2cc(F)c(-n3nc(CO)n(CC)c3=O)cc12` [Example 85, 6-(4-Ethyl-3-(hydroxymethyl)-5-oxo-4,5-dihydro-1H-1,2,4-triazol-1-yl)-7-fluoro-2-(5-fluoro-2-methoxypyridin-4-yl)-4-(prop-1-en-2-yl)isoquinolin-1(2H)-one], the IC50 was determined as 20 nM in assay [1] (Homo sapiens, MOLM-13, 72 h) and 6.55 nM on human DHODH.

On to `C=C(C)c1cn(-c2cccc(F)c2C)c(=O)c2cc(F)c(-n3nc(CO)n(CC)c3=O)cc12` [Example 86, 6-(4-Ethyl-3-(hydroxymethyl)-5-oxo-4,5-dihydro-1H-1,2,4-triazol-1-yl)-7-fluoro-2-(3-fluoro-2-methylphenyl)-4-(prop-1-en-2-yl)isoquinolin-1(2H)-one], for which the IC50 stood at 3 nM in assay [1] (Homo sapiens, MOLM-13, 72 h) and 1.19 nM on human DHODH.

Turning to `C=C(C)c1cn(-c2cc(C)ccc2C)c(=O)c2cc(F)c(-n3nc(CO)n(CC)c3=O)cc12` [Example 87, 2-(2,5-Dimethylphenyl)-6-(4-ethyl-3-(hydroxymethyl)-5-oxo-4,5-dihydro-1H-1,2,4-triazol-1-yl)-7-fluoro-4-(prop-1-en-2-yl)isoquinolin-1(2H)-one], the IC50 in assay [1] (Homo sapiens, MOLM-13, 72 h) was 0.9 nM; at human DHODH, 0.292 nM.

Turning to `CCc1ccccc1-n1cc(C(C)C)c2cc(-n3nc(CO)n(CC)c3=O)c(F)cc2c1=O` [Example 89, 6-(4-Ethyl-3-(hydroxymethyl)-5-oxo-4,5-dihydro-1H-1,2,4-triazol-1-yl)-2-(2-ethylphenyl)-7-fluoro-4-isopropylisoquinolin-1(2H)-one], the IC50 was found to be 2 nM in assay [1] (Homo sapiens, MOLM-13, 72 h) and 1.21 nM at human DHODH.

As to `CCn1c(CO)nn(-c2cc3c(C(C)C)cn(-c4cc(OC)ncc4F)c(=O)c3cc2F)c1=O` [Example 91, 6-(4-Ethyl-3-(hydroxymethyl)-5-oxo-4,5-dihydro-1H-1,2,4-triazol-1-yl)-7-fluoro-2-(5-fluoro-2-methoxypyridin-4-yl)-4-isopropylisoquinolin-1(2H)-one], the IC50 is 30 nM in assay [1] (Homo sapiens, MOLM-13, 72 h) and 6.05 nM at human DHODH.

As to `[2H]C([2H])([2H])c1ccccc1-n1cc(C(C)C)c2cc(-n3nc(CO)n(CC)c3=O)c(F)cc2c1=O` [Example 93, 6-(4-Ethyl-3-(hydroxymethyl)-5-oxo-4,5-dihydro-1H-1,2,4-triazol-1-yl)-7-fluoro-4-isopropyl-2-(2-(methyl-d3)phenyl)isoquinolin-1(2H)-one], the IC50 came to 0.6 nM in assay [1] (Homo sapiens, MOLM-13, 72 h) and 0.463 nM at human DHODH.

Regarding `CCn1c(CO)nn(-c2cc3c(C(C)C)cn(-c4cncnc4C)c(=O)c3cc2F)c1=O` [Example 94, 6-(4-Ethyl-3-(hydroxymethyl)-5-oxo-4,5-dihydro-1H-1,2,4-triazol-1-yl)-7-fluoro-4-isopropyl-2-(4-methylpyrimidin-5-yl)isoquinolin-1(2H)-one], the IC50 in assay [1] (Homo sapiens, MOLM-13, 72 h) was greater than 100 nM; at human DHODH, 566 nM.

On to `CCn1c(CO)nn(-c2cc3c(C(C)C)cn(-c4ccccc4OC)c(=O)c3cc2F)c1=O` [Example 95, 6-(4-Ethyl-3-(hydroxymethyl)-5-oxo-4,5-dihydro-1H-1,2,4-triazol-1-yl)-7-fluoro-4-isopropyl-2-(2-methoxyphenyl)isoquinolin-1(2H)-one], for which the concentration for half-maximal inhibition (IC50) turned out to be 1 nM in assay [1] (Homo sapiens, MOLM-13, 72 h) and 0.772 nM at human DHODH.

For the compound `CCn1c(CO)nn(-c2cc3c(C(C)C)cn(-c4nc(OC)ccc4F)c(=O)c3cc2F)c1=O` [Example 96, 6-(4-Ethyl-3-(hydroxymethyl)-5-oxo-4,5-dihydro-1H-1,2,4-triazol-1-yl)-7-fluoro-2-(3-fluoro-6-methoxypyridin-2-yl)-4-isopropylisoquinolin-1(2H)-one], the IC50 in assay [1] (Homo sapiens, MOLM-13, 72 h) was 9 nM; at human DHODH, 6.14 nM.

On to `CCn1c(CO)nn(-c2cc3c(C(C)C)cn(-c4nccnc4C)c(=O)c3cc2F)c1=O` [Example 97, 6-(4-Ethyl-3-(hydroxymethyl)-5-oxo-4,5-dihydro-1H-1,2,4-triazol-1-yl)-7-fluoro-4-isopropyl-2-(3-methylpyrazin-2-yl)isoquinolin-1(2H)-one], for which the IC50 was greater than 100 nM in assay [1] (Homo sapiens, MOLM-13, 72 h) and greater than 10000 nM on human DHODH.

Turning to `CCn1c(CO)nn(-c2cc3c(C(C)C)cn(-c4cc(C)cnc4Cl)c(=O)c3cc2F)c1=O` [Example 98, 2-(2-Chloro-5-methylpyridin-3-yl)-6-(4-ethyl-3-(hydroxymethyl)-5-oxo-4,5-dihydro-1H-1,2,4-triazol-1-yl)-7-fluoro-4-isopropylisoquinolin-1(2H)-one], the IC50 in assay [1] (Homo sapiens, MOLM-13, 72 h) is 50 nM; at human DHODH, 6.29 nM.

For the compound `CCn1c(CO)nn(-c2nc3c(C(C)C)cn(-c4cc(C)ccc4F)c(=O)c3cc2F)c1=O` [Example 99, 2-(4-Ethyl-3-(hydroxymethyl)-5-oxo-4,5-dihydro-1H-1,2,4-triazol-1-yl)-3-fluoro-6-(2-fluoro-5-methylphenyl)-8-isopropyl-1,6-naphthyridin-5(6H)-one], the 50% inhibitory concentration (IC50) is 7 nM in assay [1] (Homo sapiens, MOLM-13, 72 h) and 6.1 nM at human DHODH.

As to `CCn1c(CO)nn(-c2cc3c(C(C)C)cn(-c4nnccc4C)c(=O)c3cc2F)c1=O` [Example 100, 6-(4-Ethyl-3-(hydroxymethyl)-5-oxo-4,5-dihydro-1H-1,2,4-triazol-1-yl)-7-fluoro 4-isopropyl-2-(4-methylpyridazin-3-yl)isoquinolin-1(2H)-one], the IC50 in assay [1] (Homo sapiens, MOLM-13, 72 h) is greater than 100 nM; at human DHODH it was 70.7 nM.

For `CCn1c(CO)nn(-c2cc3c([C@H](C)C(F)(F)F)cn(-c4ccccc4C)c(=O)c3cc2F)c1=O` [Example 101, (S)-6-(4-Ethyl-3-(hydroxymethyl)-5-oxo-4,5-dihydro-1H-1,2,4-triazol-1-yl)-7-fluoro-2-(o-tolyl)-4-(1,1,1-trifluoropropan-2-yl)isoquinolin-1(2H)-one], the IC50 in assay [1] (Homo sapiens, MOLM-13, 72 h) turned out to be 0.4 nM; at human DHODH it was 1.19 nM.

Take `CCn1c(CO)nn(-c2cc3c([C@@H](C)C(F)(F)F)cn(-c4ccccc4C)c(=O)c3cc2F)c1=O` [Example 102, (R)-6-(4-Ethyl-3-(hydroxymethyl)-5-oxo-4,5-dihydro-1H-1,2,4-triazol-1-yl)-7-fluoro-2-(o-tolyl)-4-(1,1,1-trifluoropropan-2-yl)isoquinolin-1(2H)-one]: the IC50 in assay [1] (Homo sapiens, MOLM-13, 72 h) came out at 0.3 nM; on human DHODH, 0.26 nM.

On to `CCn1c(CO)nn(-c2cc3c(C(C)C)cn(-c4ccccc4C(F)(F)F)c(=O)c3cc2F)c1=O` [Example 103, 6-(4-Ethyl-3-(hydroxymethyl)-5-oxo-4,5-dihydro-1H-1,2,4-triazol-1-yl)-7-fluoro-4-isopropyl-2-(2-(trifluoromethyl)phenyl)isoquinolin-1(2H)-one], for which the IC50 in assay [1] (Homo sapiens, MOLM-13, 72 h) amounted to 0.3 nM; on human DHODH, 0.669 nM.

For `CCn1c(CO)nn(-c2cc3c(C(C)C)cn(-c4ncncc4C)c(=O)c3cc2F)c1=O` [Example 104, 6-(4-Ethyl-3-(hydroxymethyl)-5-oxo-4,5-dihydro-1H-1,2,4-triazol-1-yl)-7-fluoro-4-isopropyl-2-(5-methylpyrimidin-4-yl)isoquinolin-1(2H)-one], the IC50 in assay [1] (Homo sapiens, MOLM-13, 72 h) is greater than 100 nM; on human DHODH, 43.5 nM.

Take `CCn1c(CO)nn(-c2cc3c(C(C)C)cn(-c4ccccc4C(F)F)c(=O)c3cc2F)c1=O` [Example 105, 2-(2-(Difluoromethyl)phenyl)-6-(4-ethyl-3-(hydroxymethyl)-5-oxo-4,5-dihydro-1H-1,2,4-triazol-1-yl)-7-fluoro-4-isopropylisoquinolin-1(2H)-one]: the IC50 in assay [1] is 0.2 nM; in assay [1] (Homo sapiens, MOLM-13, 72 h) it was no more than 0.2 nM; on human DHODH it was 0.528 nM.

As for `CCn1c(CO)nn(-c2cc3c(C(C)C)cn(-c4ccnc(OC)c4Cl)c(=O)c3cc2F)c1=O` [Example 106, 2-(3-Chloro-2-methoxypyridin-4-yl)-6-(4-ethyl-3-(hydroxymethyl)-5-oxo-4,5-dihydro-1H-1,2,4-triazol-1-yl)-7-fluoro-4-isopropylisoquinolin-1(2H)-one], the IC50 was 10 nM in assay [1] (Homo sapiens, MOLM-13, 72 h) and 4.88 nM at human DHODH.

In the case of `CCn1c(CO)nn(-c2cc3c(C(C)C)cn(C4CCCCC4)c(=O)c3cc2F)c1=O` [Example 107, 2-Cyclohexyl-6-(4-ethyl-3-(hydroxymethyl)-5-oxo-4,5-dihydro-1H-1,2,4-triazol-1-yl)-7-fluoro-4-isopropylisoquinolin-1(2H)-one], the IC50 in assay [1] (Homo sapiens, MOLM-13, 72 h) was found to be 6 nM; at human DHODH it was 2.07 nM.
